In patent US20090246773A1, “DIAGNOSTIC COMPOSITIONS AND TREATMENT METHODS FOR CONDITIONS INVOLVING TROPHOBLAST CELL DEATH, DIFFERENTIATION, INVASION AND/OR CELL FUSION AND TURNOVER” (Mount Sinai Hospital, priority 2006, published 2009):
Residues, ends and D or L forms follow the SMILES beside them. *: point of attachment. Cbz = O=C(OCc1ccccc1)*; CH2F = FC*

What was measured:
[1] = test system: sFlt-1 expression in first trimester placental explants; experiment: sFlt-1 mRNA by qRT-PCR in first trimester villous explants (HIF-1 stabilization / knockdown); assay type: cell-based, human; conditions: 1.0 mM DMOG, explants at 20% O2; relative level normalized to 18S; 20% O2 alone 1.0±0.03; P<0.05
Protocol: (§1) Chorionic villous explant culture was performed as previously described (Caniggia, 2000). Briefly, placental tissues (5-8 weeks of gestation, 15 separate sets) were placed in ice-cold PBS and processed within 2 hours of collection. Tissues were aseptically dissected to remove decidual tissue and fetal membranes. Small fragments of placental villi (25-45 mg wet weight) were teased apart, placed on Millicell-CM culture dish inserts (Millipore Corp., Bedford, Mass., USA) pre-coated with 0.15 mL of undiluted Matrigel (Collaborative Biomedical Products, Bedford, Mass., USA), and transferred to a 24-well culture dish. Explants were cultured in serum-free DMEM/F12 (Gibco BRL, Grand Island, N.Y., USA) supplemented with 100 μg/mL streptomycin, 100 U/mL penicillin, and incubated overnight at 37° C. in 5% CO2 in air to allow attachment. Explants were maintained in standard condition (5% CO2 in 95% air) or in an atmosphere of 3% or 8% O2 (92% or 87% N2 and 5% CO2, respectively) for 72 hrs at 37° C. The morphological integrity and viability of villous explants and their EVT outgrowth and migration were monitored daily for up to 5 days as previously reported (Caniggia, 2000). […]
Total RNA was isolated from placental samples using a Trizol-based approach according to the manufacturer's protocol (Invitrogen, CA). […] Relative quantitation of data was performed using logarithmic curves. […]

[2] = test system: sFlt-1 expression in first trimester placental explants; experiment: sFlt-1 protein immunohistochemistry in villous explants; assay type: cell-based, human; conditions: DMOG added to 20% O2 explants vs. 20% O2 without DMOG; IHC
Protocol: as §1, with “Explants were maintained in standard condition (5% CO2 in 95% air) or in an atmosphere of 3% or 8% O2 (92% or 87% N2 and 5% CO2, respectively) for 72 hrs at 37° C.” left out
Paraffin sections were mounted on glass slides, dewaxed in xylene and rehydrated in descending ethanol gradient. […] Finally, avidin biotin complex (Vector Laboratories, Burlingame, Calif.) was applied for 1 hour and staining was detected with the diamino-benzidine chromogen after 5 minutes. […]

villous explants [3] = experiment: EVT outgrowth of villous explants; assay type: cell-based, human; conditions: DMOG-treated explants vs. control explants at 20% O2
Protocol: Chorionic villous explant culture was performed as previously described (Caniggia, 2000). Briefly, placental tissues (5-8 weeks of gestation, 15 separate sets) were placed in ice-cold PBS and processed within 2 hours of collection. Tissues were aseptically dissected to remove decidual tissue and fetal membranes. Small fragments of placental villi (25-45 mg wet weight) were teased apart, placed on Millicell-CM culture dish inserts (Millipore Corp., Bedford, Mass., USA) pre-coated with 0.15 mL of undiluted Matrigel (Collaborative Biomedical Products, Bedford, Mass., USA), and transferred to a 24-well culture dish. Explants were cultured in serum-free DMEM/F12 (Gibco BRL, Grand Island, N.Y., USA) supplemented with 100 μg/mL streptomycin, 100 U/mL penicillin, and incubated overnight at 37° C. in 5% CO2 in air to allow attachment. Explants were maintained in standard condition (5% CO2 in 95% air) or in an atmosphere of 3% or 8% O2 (92% or 87% N2 and 5% CO2, respectively) for 72 hrs at 37° C. The morphological integrity and viability of villous explants and their EVT outgrowth and migration were monitored daily for up to 5 days as previously reported (Caniggia, 2000). Explants from more than 10 different placentae in more than 15 separate experiments were used. […]

villous explants [4] = experiment: TUNEL assay of villous explants; assay type: cell-based, human; conditions: DMOG treatment or 3% O2 exposure of explants
Protocol: An in situ cell death detection kit was purchased from Amersham Biosciences, NJ, USA. Terminal deoxynucleotidyl transferase-dUTP-nick end labelling (TUNEL) assays were performed according to instructions provided by the manufacturer. Paraffin sections of tissue were dewaxed in xylene, rehydrated in descending grades of ethanol, and finally soaked in PBS. Tissue sections were pre-treated with Proteinase K (10 μg/mL) in PBS for 10 min, washed and then incubated in 3% hydrogen peroxide in methanol for 45 minutes. After washing in PBS, the slides were preincubated with 1× One Phor All buffer in 0.1% Triton X-100 in water for 30 minutes and then incubated in TdT solution for 1.5 hour at 37° C. Samples were washed in PBS and avidin biotin complex (Vector Laboratories, Burlingame, Calif.) was applied for 1 hour. Staining was detected with the diamino-benzidine chromogen after 10 minutes. Slides were counterstained with haematoxylin, dehydrated in ascending concentrations of ethanol, and fixed with xylene.

[5] = test system: Mcl-1 Cleavage in Human Villous Explants; experiment: Mcl-1 immunoblot of villous explants exposed to hypoxia-reoxygenation with caspase inhibitors; assay type: cell-based; conditions: for Mcl-1S amount: 100 μM inhibitor, relative to H/R and untreated tissues; for Mcl-1L cleavage induced by hypoxia-reoxygenation: human villous explants, summary statement
Protocol: Explant cultures were performed as previously described (Caniggia, 2000). Briefly, placental tissues (5-8 weeks of gestation, 15 sets) were placed in ice-cold PBS and processed within 2 hours of collection. Tissues were aseptically dissected to remove decidual tissue and fetal membranes. Small fragments of placental villi (25-45 mg wet weight) were teased apart, placed on Millicell-CM culture dish inserts (Millipore Corp., Bedford, Mass., USA) pre-coated with 0.15 mL of undiluted Matrigel (Collaborative Biomedical Products, Bedford, Mass., USA), and transferred to a 24-well culture dish. Explants were cultured in serum-free DMEM/F12 (Gibco BRL, Grand Island, N.Y., USA) supplemented with 100 μg/mL streptomycin, 100 U/mL penicillin, and incubated overnight at 37° C. in 5% CO2 in air to allow attachment. Explants were maintained in standard condition (5% CO2 in 95% air) or in an atmosphere of 3% O2/92% N2/5% CO2 for 48 hrs at 37° C. Explants from more than 10 different placentae in more than 15 separate experiments were used. A minimum of 3 explants per experimental condition was used at all times. Explants were exposed to hypoxia-reoxygenation (H/R) as previously described (Hung, 2002; Soleymanlou, 2005) in presence of 100 μM of the pan-caspase inhibitor z-VAD-fmk (BioMol, Plymouth Meeting, Pa.) or caspase-3-specific inhibitor z-DEVD-fmk (R&D Systems, Minneapolis, Minn.) both dissolved in DMSO (equivalent volume of DMSO in absence of inhibitors was used in control conditions).
Western blotting was performed as previously described (MacPhee, 2001). Fifty μg of total protein form placental tissue or cell line was subjected to 12% (wt/vol) SDS-PAGE. Membranes were probed at 4° C. overnight with a 1:1000 dilutions of primary antibodies:rabbit polyclonal Mtd antibody capable of recognizing all isoforms as previously reported (Soleymanlou, 2005); Mcl-1-specific rabbit polyclonal antibody (SC-819 clone S-19 from Santa Cruz Biotechnology, Santa Cruz, Calif.); specific cleaved caspase-3 (Asp175) (5Al) and cleaved caspase-8 (Asp374) rabbit polyclonal antibodies (Cell Signaling, Beverly, Mass.). For anti-Mtd and Mcl-1 antibodies, pre-immune serum and competing peptides were used as controls. A rabbit polyclonal antibody was generated against N-terminal amino acids (28-41) of syncytin (NM_014590) and pre-immune serum was used as control. After overnight incubation, membranes were washed with TBS/T and incubated for 60 minutes at room temperature with 1:5000 diluted horseradish peroxidase-conjugated anti-rabbit (Santa Cruz Biotechnology). Blots were exposed to chemiluminescent ECL-plus reagent (Amersham, Piscataway, N.J.). All blots were confirmed for equal protein loading at all time using ponceau staining.

villous explants [6] = experiment: TGFβ treatment of first trimester villous explants: phospho-Smad2/3 and sFlt-1 (Western blot, real-time PCR); assay type: cell-based, human; conditions: 5 ng/mL, 24 hours
Protocol: (§2) Early onset (25-33 wks) severe IUGR with abnormal umbilical and uterine artery Doppler and from age-matched normal control tissues were collected. First trimester villous explants and BeWo and JEG-3 choriocarcinoma cell lines were cultured in standard conditions in the presence or absence of TGFβ1 or TGFβ 3 (5 ng/mL) for 24 hours. Message levels of sFlt-1 were measured by quantitative real-time PCR using specific TaqMan primers and probe. Protein expression of sFlt-1 was measured by Western blot using a polyclonal antibody against sFlt-1. In addition, protein lysates from placental tissues, explants and cells lines were analyzed with antibodies that recognize human Smad2, Smad3, Smad7 and phospho-Smad2/3.

BeWo cells = experiment: TGFβ treatment of BeWo cells: phospho-Smad2/3 and sFlt-1 (Western blot, real-time PCR); assay type: cell-based, human; conditions: 5 ng/mL, 24 hours
Protocol: as §2

villous explants [7] = experiment: TGFβ treatment of villous explants: endoglin expression; assay type: cell-based, human; conditions: villous explants (5-8 wks) vs. non-treated explants
Protocol: Human placental tissue from first trimester and from discordant dichorionic and monochorionic twins (n=10) and age matched normal twins (n=5) were used as physiological and pathological models of placental hypoxia. In all twins the discordancy was above 25% and absence of end diastolic velocity was documented in the growth-restricted twin. Endoglin mRNA expression was measured by quantitative PCR analysis. Protein expression was measured by Western Blot analysis using endoglin antibodies. Villous explants (5-8 wks) were used to test the effect of both oxygen and TGFβ1 and TGFβ3 on endoglin expression.

[8] = explants under H/R, 100 μM inhibitor in DMSO, immunoblot

p29 Mcl-1 (Mcl-1c) band / formation from Mcl-1L [5, 8] | Mcl-1S amount ([5]; explants under H/R) | Mcl-1L cleavage induced by hypoxia-reoxygenation [5] | Molecule | phospho-Smad2 protein expression (villous explants [6]) | phospho-Smad3 protein expression (villous explants [6]) | sFlt-1 mRNA level (villous explants [6]) | sFlt-1 protein level (villous explants [6]) | phospho-Smad2 protein expression (BeWo cells) | phospho-Smad3 protein expression (BeWo cells) | sFlt-1 mRNA level (BeWo cells) | sFlt-1 protein level (BeWo cells) | expression of membrane endoglin (villous explants [7]) | expression of soluble endoglin (villous explants [7]) | further results
 |  |  | COC(=O)CNC(=O)C(=O)OC [DMOG, dimethyloxalyl-glycin] |  |  |  |  |  |  |  |  |  |  | sFlt-1 mRNA expression [1]: 2.4±0.2; sFlt-1 protein expression in trophoblast layers including EVT [2]: increased; explant outgrowth (villous explants [3]): typical low oxygen-induced outgrowth; apoptosis (TUNEL) (villous explants [4]): not likely due to an increased incidence of apoptosis
prevented | increased | prevented | COC(=O)CC[C@H](NC(=O)[C@H](CC(=O)OC)NC(=O)OCc1ccccc1)C(=O)N[C@H](C(=O)N[C@@H](CC(=O)OC)C(=O)CF)C(C)C [z-DEVD-fmk] |  |  |  |  |  |  |  |  |  |  | 
abrogated | increased | prevented | COC(=O)C[C@H](NC(=O)[C@H](C)NC(=O)[C@@H](NC(=O)OCc1ccccc1)C(C)C)C(=O)CF [z-VAD-fmk] (Cbz-Val-Ala-Asp(OMe)-CH2F) |  |  |  |  |  |  |  |  |  |  | Mcl-1L content [5, 8]: restored
 |  |  | transforming growth factor β1 [TGFβ1] | increased | increased | significant increase | significant increase | increased | increased | significant increase | significant increase | increased | increased | 
 |  |  | transforming growth factor β3 (protein, UniProt P10600 301-412, looked up, transforming growth factor β3 added to explant and cell cultures) Transforming growth factor …: ALDTNYCFRNLEENCCVRPLYIDFRQDLGWKWVHEPKGYYANFCSGPCPYLRSADTTHSTVLGLYNTLNPEASASPCCVPQDLEPLTILYYVGRTPKVEQLSNMVVKSCKCS | increased | increased | significant increase | significant increase | increased | increased | significant increase | significant increase | increased | increased | 
